Measured values as given in patent US7786120B2, “Pyridones useful as inhibitors of kinases” (Vertex Pharmaceuticals Incorporated, priority 2005, dated 2010).

Experiments:
Format in all cases: biochemical
human Itk kinase = molecular target: T1, human Itk kinase (Homo sapiens, UniProt Q08881); assay: Itk Inhibition Assay (radioactivity-based or spectrophotometric); conditions: inhibition of human Itk kinase
T1 sequence (Q08881 1-620): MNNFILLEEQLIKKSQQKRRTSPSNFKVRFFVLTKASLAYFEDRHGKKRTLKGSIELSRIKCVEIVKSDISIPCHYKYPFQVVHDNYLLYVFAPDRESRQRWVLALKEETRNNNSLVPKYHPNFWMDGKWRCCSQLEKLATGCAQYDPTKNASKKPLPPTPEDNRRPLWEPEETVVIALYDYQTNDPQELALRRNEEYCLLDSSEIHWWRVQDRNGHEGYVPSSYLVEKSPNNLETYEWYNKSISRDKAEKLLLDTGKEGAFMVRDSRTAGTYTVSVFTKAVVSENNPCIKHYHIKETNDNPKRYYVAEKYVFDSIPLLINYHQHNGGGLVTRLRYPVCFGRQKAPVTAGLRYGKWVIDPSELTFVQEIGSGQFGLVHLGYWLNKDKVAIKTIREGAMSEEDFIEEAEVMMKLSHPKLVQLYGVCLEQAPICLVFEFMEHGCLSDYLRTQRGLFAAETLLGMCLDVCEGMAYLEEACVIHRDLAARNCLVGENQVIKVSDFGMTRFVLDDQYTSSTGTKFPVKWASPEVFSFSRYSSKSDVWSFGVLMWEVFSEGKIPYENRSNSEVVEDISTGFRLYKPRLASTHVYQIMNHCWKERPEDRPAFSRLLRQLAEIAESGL
Protocol: The compounds of the present invention can be evaluated as inhibitors of human Itk kinase using either a radioactivity-based or a spectrophotometric assay. In general, compounds of the invention, including compounds in Table 1, are effective for the inhibition of Itk. Specifically, compounds I.1 to I.5 and compound I.7 have a Ki value of <1 μM and compounds I.6 and I.8 have a Ki value of >1 μM.
Assays were carried out in a mixture of 100 mM HEPES (pH 7.5), 10 mM MgCl2, 25 mM NaCl, 0.01% BSA and 1 mM DTT. Final substrate concentrations were 15 μM [γ-^33P]ATP (400 μCi ^33P ATP/μmol ATP, Amersham Pharmacia Biotech/Sigma Chemicals) and 2 μM peptide (SAM68 protein Δ332-443). Assays were carried out at 25° C. in the presence of 30 nM Itk. An assay stock buffer solution was prepared containing all of the reagents listed above, with the exception of ATP and the test compound of interest. 50 μL of the stock solution was placed in a 96 well plate followed by addition of 1.5 μL of DMSO stock containing serial dilutions of the test compound (typically starting from a final concentration of 15 μM with 2-fold serial dilutions) in duplicate (final DMSO concentration 1.5%). The plate was pre-incubated for 10 minutes at 25° C. and the reaction initiated by addition of 50 μL [γ-^33P]ATP (final concentration 15 μM).
The reaction was stopped after 10 minutes by the addition of 50 μL of a TCA/ATP mixture (20% TCA, 0.4 mM ATP). A Unifilter GF/C 96 well plate (Perkin Elmer Life Sciences, Cat no. 6005174) was pretreated with 5 μL Milli Q water prior to the addition of the entire reaction mixture (150 μL). […]
IC50 data were calculated from non-linear regression analysis of the initial rate data using the Prism software package (GraphPad Prism version 3.0cx for Macintosh, GraphPad Software, San Diego, Calif., USA). […]
Ki(app) data were calculated from non-linear regression analysis of the initial rate data using the Prism software package (GraphPad Prism version 3.0cx for Macintosh, GraphPad Software, San Diego, Calif., USA). […]

JAK3 = molecular target: T2, JAK3 (Homo sapiens, UniProt P52333); assay: JAK3 kinase inhibition (assays similar to the ones described)
T2 sequence (P52333 1-1124): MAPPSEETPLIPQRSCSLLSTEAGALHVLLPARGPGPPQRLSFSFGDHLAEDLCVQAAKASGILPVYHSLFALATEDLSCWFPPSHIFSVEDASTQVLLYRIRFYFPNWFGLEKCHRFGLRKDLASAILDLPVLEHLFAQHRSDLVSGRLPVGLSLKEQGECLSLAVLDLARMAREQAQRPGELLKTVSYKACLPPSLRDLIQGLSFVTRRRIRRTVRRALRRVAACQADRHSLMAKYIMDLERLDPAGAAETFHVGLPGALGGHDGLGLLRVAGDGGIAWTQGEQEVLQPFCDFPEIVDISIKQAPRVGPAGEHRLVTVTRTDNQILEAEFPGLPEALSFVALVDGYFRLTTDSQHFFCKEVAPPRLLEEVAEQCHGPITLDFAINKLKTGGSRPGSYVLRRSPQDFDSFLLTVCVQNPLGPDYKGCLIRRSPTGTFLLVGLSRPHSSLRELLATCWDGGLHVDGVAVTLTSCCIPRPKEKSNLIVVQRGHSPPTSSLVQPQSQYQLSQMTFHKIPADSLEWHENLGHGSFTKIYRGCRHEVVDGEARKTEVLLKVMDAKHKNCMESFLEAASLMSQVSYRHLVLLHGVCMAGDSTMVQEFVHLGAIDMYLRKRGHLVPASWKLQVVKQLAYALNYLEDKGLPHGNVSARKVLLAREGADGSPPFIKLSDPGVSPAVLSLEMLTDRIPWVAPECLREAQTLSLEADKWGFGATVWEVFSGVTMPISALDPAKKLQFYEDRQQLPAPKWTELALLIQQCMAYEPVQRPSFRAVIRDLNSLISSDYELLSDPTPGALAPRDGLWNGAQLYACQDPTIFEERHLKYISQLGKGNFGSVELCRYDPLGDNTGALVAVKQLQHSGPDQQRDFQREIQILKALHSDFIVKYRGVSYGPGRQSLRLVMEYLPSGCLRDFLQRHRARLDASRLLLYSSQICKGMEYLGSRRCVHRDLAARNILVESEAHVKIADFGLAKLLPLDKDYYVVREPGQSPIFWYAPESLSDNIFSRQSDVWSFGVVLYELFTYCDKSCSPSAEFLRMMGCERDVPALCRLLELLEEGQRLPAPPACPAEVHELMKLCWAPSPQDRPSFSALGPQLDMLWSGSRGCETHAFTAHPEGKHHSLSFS
Protocol: (§1) Compound I.9 was tested in assays similar to the ones described herein and found to inhibit FLT-3, JAK2, and JAK3 kinases.

JAK2 = JAK2 (Homo sapiens, UniProt O60674); assay: JAK2 kinase inhibition (assays similar to the ones described)
JAK2, sequence (O60674 whole entry, species assumed): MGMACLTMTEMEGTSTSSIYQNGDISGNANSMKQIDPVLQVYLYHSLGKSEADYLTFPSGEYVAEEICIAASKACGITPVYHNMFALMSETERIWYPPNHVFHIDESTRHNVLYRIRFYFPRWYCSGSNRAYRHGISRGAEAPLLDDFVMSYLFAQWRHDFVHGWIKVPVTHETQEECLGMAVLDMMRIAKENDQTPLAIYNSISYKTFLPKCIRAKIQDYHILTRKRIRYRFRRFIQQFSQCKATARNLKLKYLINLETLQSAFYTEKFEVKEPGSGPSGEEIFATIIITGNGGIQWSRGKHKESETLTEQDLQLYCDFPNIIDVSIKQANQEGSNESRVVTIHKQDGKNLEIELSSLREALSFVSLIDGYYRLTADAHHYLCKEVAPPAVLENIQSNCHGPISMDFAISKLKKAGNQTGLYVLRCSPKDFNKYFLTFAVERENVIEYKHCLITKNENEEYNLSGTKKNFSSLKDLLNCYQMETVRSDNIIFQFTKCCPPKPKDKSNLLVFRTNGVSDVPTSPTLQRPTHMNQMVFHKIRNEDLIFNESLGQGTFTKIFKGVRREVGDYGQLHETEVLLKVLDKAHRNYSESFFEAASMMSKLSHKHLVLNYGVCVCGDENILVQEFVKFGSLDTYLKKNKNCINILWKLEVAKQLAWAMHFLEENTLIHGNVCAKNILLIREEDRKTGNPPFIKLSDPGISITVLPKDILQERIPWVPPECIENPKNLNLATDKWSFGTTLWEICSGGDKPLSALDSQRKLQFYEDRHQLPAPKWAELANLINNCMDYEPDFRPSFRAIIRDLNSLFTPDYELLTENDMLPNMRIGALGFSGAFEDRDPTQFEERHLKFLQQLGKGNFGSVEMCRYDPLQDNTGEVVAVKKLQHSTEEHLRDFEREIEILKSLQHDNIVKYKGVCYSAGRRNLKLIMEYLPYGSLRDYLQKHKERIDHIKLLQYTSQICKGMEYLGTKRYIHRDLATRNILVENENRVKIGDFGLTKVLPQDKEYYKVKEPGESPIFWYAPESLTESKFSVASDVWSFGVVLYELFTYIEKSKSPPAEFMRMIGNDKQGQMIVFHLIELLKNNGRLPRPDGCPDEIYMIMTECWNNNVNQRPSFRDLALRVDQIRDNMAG
Protocol: as §1

FLT-3 = molecular target: T3, FLT-3 (Homo sapiens, UniProt P36888); assay: FLT-3 kinase inhibition (assays similar to the ones described)
T3 sequence (P36888 27-993): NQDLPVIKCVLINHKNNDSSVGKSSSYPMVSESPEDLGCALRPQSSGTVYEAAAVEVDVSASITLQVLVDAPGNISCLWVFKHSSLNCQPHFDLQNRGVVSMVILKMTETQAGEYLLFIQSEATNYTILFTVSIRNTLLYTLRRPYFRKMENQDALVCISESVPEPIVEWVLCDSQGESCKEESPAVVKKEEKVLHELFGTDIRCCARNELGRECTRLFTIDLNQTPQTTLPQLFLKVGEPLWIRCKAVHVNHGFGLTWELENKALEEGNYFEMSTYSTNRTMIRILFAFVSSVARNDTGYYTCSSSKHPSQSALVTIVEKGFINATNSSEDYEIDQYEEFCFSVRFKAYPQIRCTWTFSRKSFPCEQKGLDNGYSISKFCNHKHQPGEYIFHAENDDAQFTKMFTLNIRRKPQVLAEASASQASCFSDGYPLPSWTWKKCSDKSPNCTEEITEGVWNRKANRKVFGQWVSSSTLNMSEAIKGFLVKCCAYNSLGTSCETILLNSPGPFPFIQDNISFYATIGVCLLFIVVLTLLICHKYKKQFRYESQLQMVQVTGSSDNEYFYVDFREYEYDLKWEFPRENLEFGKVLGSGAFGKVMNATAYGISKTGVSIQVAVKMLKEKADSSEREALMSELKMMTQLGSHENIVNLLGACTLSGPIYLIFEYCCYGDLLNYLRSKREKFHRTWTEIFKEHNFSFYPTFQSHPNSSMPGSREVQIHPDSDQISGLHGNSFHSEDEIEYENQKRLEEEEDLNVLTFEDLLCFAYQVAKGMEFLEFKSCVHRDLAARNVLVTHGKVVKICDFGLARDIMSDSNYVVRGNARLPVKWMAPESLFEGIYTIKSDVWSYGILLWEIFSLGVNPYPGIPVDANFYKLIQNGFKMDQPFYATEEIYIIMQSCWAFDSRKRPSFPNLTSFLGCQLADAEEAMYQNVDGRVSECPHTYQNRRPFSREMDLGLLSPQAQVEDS
Protocol: as §1

| Ki (human Itk kinase) [µM] | inhibition of JAK3 kinase (in words) (JAK3) | inhibition of JAK2 kinase (in words) (JAK2) | inhibition of FLT-3 kinase (in words) (FLT-3) | SMILES |
| --- | --- | --- | --- | --- |
| > 1 | – | – | – | CNc1cncc(-c2c[nH]c(=O)c(/C=C3\C(=O)Nc4ccccc43)c2)n1 [I.6, 3-((1,2-dihydro-5-(6-(methylamino)pyrazin-2-yl)-2-oxopyridin-3-yl)methylene)indolin-2-one] |
| < 1 | – | – | – | CNc1cncc(-c2c[nH]c(=O)c(/C=C/c3cc(CN4CCN(S(C)(=O)=O)CC4)ccc3[N+](=O)[O-])c2)n1 [I.7] |
| > 1 | – | – | – | CNc1cncc(-c2c[nH]c(=O)c(/C=C/c3cc(OC)ccc3[N+](=O)[O-])c2)n1 [I.8] |
| – | inhibit | inhibit | inhibit | O=c1[nH]cc(-c2ccccc2Cl)cc1/C=C/c1cnc2ccccn12 [I.9] |
